Experimental data taken from PubChem BioAssay AID1918936 (Molecular Pharmacology Branch, DTP, NCI, 2023).

Test system: 349418-098-R-PDC complex spheroid viability
Experiment: Anticancer human tumor 349418-098-R-PDC patient-derived lung adenocarcinoma cell line growth inhibition
Details: for IC50: curve of first compound; for viability, T/C: stronger effect = lower value
Excerpt: Multicellular complex tumor spheroid response to LSD1 Inhibitor Iadademstat in combination with a variety of drugs and investigational agents in selected tumor cell lines
The current study was undertaken to assess response to LSD1 inhibitors in combination with standard-of-care drugs and investigational agents in solid tumor complex spheroid models as well as in the K-562 leukemia. Complex spheroids include a stromal component modeled by human endothelial cells (HUVEC) and fibroblasts modeled by human mesenchymal stem cells (MSCs). The concentration ranges selected for each drug and investigational agent were based upon clinically achievable concentrations if the clinical Cmax of the agent was known.
Compounds. The drugs and investigational agents used in this study are listed on Table 1. All of the agents used, including staurosporine (NSC755774) and gemcitabine (NSC613327), were obtained from the Developmental Therapeutics Program, NCI. FDA-approved anticancer drugs are available from the NCI at http://dtp.nci.nih.gov/branches/dscb/oncology_drugset_explanation.html. Drugs and investigational agents were >95% pure by proton nuclear magnetic resonance (NMR) and liquid chromatography/mass spectrometry (LC/MS). Stock solutions were prepared at 400x in DMSO, stored at -70 degrees C, and diluted in fresh medium prior to their use. The final concentration of DMSO in cell culture wells never exceeded 0.25% (v/v). The FDA-approved anticancer drug set is available from the Developmental Therapeutics Program at https://dtp.cancer.gov/organization/dscb/obtaining/available_plates.htm. All drugs and investigational agents were tested over a range starting from a high concentration at or near the clinical Cmax and decreasing in half-log increments. If the clinical Cmax for an agent had not been determined, the highest concentration tested was 10 microM.
Cell Lines. The patient-derived cancer cell (PDC) lines: 292921-168-R-J2-PDC, K24384-001-R-PDC, and 521955-158-R2-J5-PDC pancreatic carcinomas, 556581-035-R-J1 ovarian carcinoma, 324938-238-R-J1-PDC, 855422-203-R-J1-PDC and 883617-216-R-J1-PDC urothelial bladder carcinomas, 743489-274-T-PDC renal cell carcinoma, 138582-R-J1 Merkel cell tumor, K60290-347-R-J1 and K57222-313-R-J1-PDC glioblastomas, 653999-131-R-J2-PDC, LG0703-F948-PDC, and 349418-098-R-PDC non-small cell lung carcinomas, 885512-296-R-J2-PDC, 171881-019-R-J1-PDC breast carcinomas and 186277-243-T-J2-PDC and 233499-124-R-J2-PDC colon carcinomas were obtained from the NCI Patient-Derived Models Repository (PDMR, https://pdmr.cancer.gov). The established cell lines NCI/ADR-RES (RRID:CVCL_14520 and OVCAR-5 (RRID:CVCL_1628) ovarian carcinomas, 786-O (RRID:CVCL_1051) and A498 (RRID:CVCL_A498) renal cell carcinoma, NCI-H211 (ATCC, cat. CRL-5824; RRID:CVCL_1529), NCI-H196 (ATCC, cat. CRL-5823, RRID:CVCL_1509), SW 1271 (ATCC, cat. CRL-2177, RRID:CVCL_1716) and NCI-H1876 (ATCC, cat. CRL-5902, RRID:CVCL_1503) small cell lung carcinomas, MDA-MB-231 (RRID:CVCL_0062) and MDA-MB-468 (RRID:CVCL_0419)breast carcinomas (10-12). Pooled donor human umbilical vein endothelial cells (HUVEC, Lonza, cat. CC-2519) and human mesenchymal stem cells (hMSC, Lonza, cat. PT-2501) were purchased from Lonza (Walkersville, MD).
Cell Culture. All cells were maintained in an incubator at 37 degrees C and 5% CO2 with 95% humidity. The PDC lines were cultured according to standard operating procedures established by the NCI PDMR (https://pdmr.cancer.gov). Briefly all PDCs were thawed and cultured in Matrigel-coated flasks prepared with a working solution of 1X Ham's F-12 nutrient mix, without supplementation (Invitrogen, Waltham, MA, cat. 11765054), 100 U/mL penicillin-streptomycin (Invitrogen, cat. 15140122), and 2.5% Matrigel (Corning Inc., Corning, NY, cat. 354248) for the first three passages. […]
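Note: spheroids exposed to agents for seven days before readout.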
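Throughout, for viability, T/C: 100% = DMSO vehicle control wells.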

Compound: CC[C@@]1(O)C(=O)OCc2c1cc1n(c2=O)Cc2cc3c(CN(C)C)c(O)ccc3nc2-1 + NC1CC1c1ccc(-c2cccc(O)c2)cc1
- IC50 (second compound 0.1 µM): 4.97 nM
- IC50 (second compound 0.316 µM): 4.86 nM
- IC50 (second compound 1 µM): 4.78 nM
- IC50 (second compound 3.16 µM): 4.69 nM
- IC50 (second compound 10 µM): 3.8 nM
- viability, T/C (second compound 0.1 µM, first compound 0.000316 µM): 115%
- viability, T/C (second compound 0.1 µM, first compound 0.001 µM): 108%
- viability, T/C (second compound 0.1 µM, first compound 0.00316 µM): 74.8%
- viability, T/C (second compound 0.1 µM, first compound 0.01 µM): 11.4%
- viability, T/C (second compound 0.1 µM, first compound 0.0316 µM): 5.55%
- viability, T/C (second compound 0.1 µM, first compound 0.1 µM): 3.01%
- viability, T/C (second compound 0.316 µM, first compound 0.000316 µM): 120%
- viability, T/C (second compound 0.316 µM, first compound 0.001 µM): 116%
- viability, T/C (second compound 0.316 µM, first compound 0.00316 µM): 74%
- viability, T/C (second compound 0.316 µM, first compound 0.01 µM): 9.75%
- viability, T/C (second compound 0.316 µM, first compound 0.0316 µM): 4.91%
- viability, T/C (second compound 0.316 µM, first compound 0.1 µM): 2.78%
- viability, T/C (second compound 1 µM, first compound 0.000316 µM): 118%
- viability, T/C (second compound 1 µM, first compound 0.001 µM): 116%
- viability, T/C (second compound 1 µM, first compound 0.00316 µM): 72.4%
- viability, T/C (second compound 1 µM, first compound 0.01 µM): 10.1%
- viability, T/C (second compound 1 µM, first compound 0.0316 µM): 5.15%
- viability, T/C (second compound 1 µM, first compound 0.1 µM): 2.6%
- viability, T/C (second compound 3.16 µM, first compound 0.000316 µM): 122%
- viability, T/C (second compound 3.16 µM, first compound 0.001 µM): 112%
- viability, T/C (second compound 3.16 µM, first compound 0.00316 µM): 70.8%
- viability, T/C (second compound 3.16 µM, first compound 0.01 µM): 10.1%
- viability, T/C (second compound 3.16 µM, first compound 0.0316 µM): 5.39%
- viability, T/C (second compound 3.16 µM, first compound 0.1 µM): 2.8%
- viability, T/C (second compound 10 µM, first compound 0.000316 µM): 91.9%
- viability, T/C (second compound 10 µM, first compound 0.001 µM): 90.1%
- viability, T/C (second compound 10 µM, first compound 0.00316 µM): 57.8%
- viability, T/C (second compound 10 µM, first compound 0.01 µM): 8.84%
- viability, T/C (second compound 10 µM, first compound 0.0316 µM): 5.04%
- viability, T/C (second compound 10 µM, first compound 0.1 µM): 2.95%

Compound: Nc1ccn(C2OC(CO)C(O)C2(F)F)c(=O)n1 (stereo not given) + NC1CC1c1ccc(-c2cccc(O)c2)cc1
- IC50 (second compound 0.1 µM): < 0.949 nM
- IC50 (second compound 0.316 µM): < 0.949 nM
- IC50 (second compound 1 µM): < 0.949 nM
- IC50 (second compound 3.16 µM): < 0.949 nM
- IC50 (second compound 10 µM): < 0.949 nM
- viability, T/C (second compound 0.1 µM, first compound 0.000949 µM): 13.3%
- viability, T/C (second compound 0.1 µM, first compound 0.003 µM): 4.68%
- viability, T/C (second compound 0.1 µM, first compound 0.00949 µM): 4.34%
- viability, T/C (second compound 0.1 µM, first compound 0.03 µM): 4.35%
- viability, T/C (second compound 0.1 µM, first compound 0.0949 µM): 3.93%
- viability, T/C (second compound 0.1 µM, first compound 0.3 µM): 4.06%
- viability, T/C (second compound 0.316 µM, first compound 0.000949 µM): 14.1%
- viability, T/C (second compound 0.316 µM, first compound 0.003 µM): 3.77%
- viability, T/C (second compound 0.316 µM, first compound 0.00949 µM): 3.96%
- viability, T/C (second compound 0.316 µM, first compound 0.03 µM): 3.75%
- viability, T/C (second compound 0.316 µM, first compound 0.0949 µM): 3.4%
- viability, T/C (second compound 0.316 µM, first compound 0.3 µM): 3.31%
- viability, T/C (second compound 1 µM, first compound 0.000949 µM): 15.9%
- viability, T/C (second compound 1 µM, first compound 0.003 µM): 4.07%
- viability, T/C (second compound 1 µM, first compound 0.00949 µM): 4.17%
- viability, T/C (second compound 1 µM, first compound 0.03 µM): 3.99%
- viability, T/C (second compound 1 µM, first compound 0.0949 µM): 3.7%
- viability, T/C (second compound 1 µM, first compound 0.3 µM): 3.81%
- viability, T/C (second compound 3.16 µM, first compound 0.000949 µM): 18.6%
- viability, T/C (second compound 3.16 µM, first compound 0.003 µM): 4.9%
- viability, T/C (second compound 3.16 µM, first compound 0.00949 µM): 4.67%
- viability, T/C (second compound 3.16 µM, first compound 0.03 µM): 4.52%
- viability, T/C (second compound 3.16 µM, first compound 0.0949 µM): 3.81%
- viability, T/C (second compound 3.16 µM, first compound 0.3 µM): 3.95%
- viability, T/C (second compound 10 µM, first compound 0.000949 µM): 17.2%
- viability, T/C (second compound 10 µM, first compound 0.003 µM): 4.98%
- viability, T/C (second compound 10 µM, first compound 0.00949 µM): 5.12%
- viability, T/C (second compound 10 µM, first compound 0.03 µM): 4.52%
- viability, T/C (second compound 10 µM, first compound 0.0949 µM): 4.65%
- viability, T/C (second compound 10 µM, first compound 0.3 µM): 4.28%
